Measurements as given in a compilation of properties of binary mixtures (doi:10.1007/s11426-012-4655-1).

Experiment: xn = mol fraction of the nth substance listed
Conditions: 101 kPa

## CCCCCCCCn1cc[n+](C)c1.[Cl-] + CCCCCCCCn1cc[n+](C)c1.F[B-](F)(F)F
303 K, x1 = 1
  electrical conductivity: 0.0021 S/m
308 K, x1 = 1
  electrical conductivity: 0.0035 S/m
318 K, x1 = 1
  electrical conductivity: 0.0086 S/m
323 K, x1 = 1
  electrical conductivity: 0.0129 S/m
323.15 K, x1 = 1
  viscosity: 2043 mPa·s
328 K, x1 = 1
  electrical conductivity: 0.0187 S/m
333 K, x1 = 1
  electrical conductivity: 0.0266 S/m
333.15 K, x1 = 1
  viscosity: 930 mPa·s

## CCCCCCCCn1cc[n+](C)c1.F[B-](F)(F)F + CCCCCCCCn1cc[n+](C)c1.[Cl-]
303 K, x2 = 0.2
  electrical conductivity: 0.0443 S/m
303 K, x2 = 0.4
  electrical conductivity: 0.0225 S/m
303 K, x2 = 0.6
  electrical conductivity: 0.011 S/m
303.15 K, x2 = 0.2
  viscosity: 530 mPa·s
303.15 K, x2 = 0.6
  viscosity: 2399 mPa·s
308 K, x2 = 0
  electrical conductivity: 0.107 S/m
308 K, x2 = 0.2
  electrical conductivity: 0.0605 S/m
308 K, x2 = 0.4
  electrical conductivity: 0.0317 S/m
308 K, x2 = 0.6
  electrical conductivity: 0.0163 S/m
308 K, x2 = 0.8
  electrical conductivity: 0.0085 S/m
308.15 K, x2 = 0
  viscosity: 194 mPa·s
308.15 K, x2 = 0.2
  viscosity: 380 mPa·s
308.15 K, x2 = 0.4
  viscosity: 760 mPa·s
308.15 K, x2 = 0.6
  viscosity: 1565 mPa·s
313 K, x2 = 0
  electrical conductivity: 0.137 S/m
313 K, x2 = 0.2
  electrical conductivity: 0.0801 S/m
313 K, x2 = 0.4
  electrical conductivity: 0.0438 S/m
313 K, x2 = 0.8
  electrical conductivity: 0.0128 S/m
313.15 K, x2 = 0
  viscosity: 149 mPa·s
313.15 K, x2 = 0.2
  viscosity: 279 mPa·s
313.15 K, x2 = 0.4
  viscosity: 530 mPa·s
313.15 K, x2 = 0.6
  viscosity: 1065 mPa·s
313.15 K, x2 = 0.8
  viscosity: 2245 mPa·s
318 K, x2 = 0.4
  electrical conductivity: 0.0595 S/m
318 K, x2 = 0.8
  electrical conductivity: 0.0186 S/m
318.15 K, x2 = 0
  viscosity: 116 mPa·s
318.15 K, x2 = 0.2
  viscosity: 211 mPa·s
318.15 K, x2 = 0.4
  viscosity: 390 mPa·s
318.15 K, x2 = 0.6
  viscosity: 740 mPa·s
323 K, x2 = 0
  electrical conductivity: 0.215 S/m
323 K, x2 = 0.2
  electrical conductivity: 0.136 S/m
323 K, x2 = 0.4
  electrical conductivity: 0.0791 S/m
323 K, x2 = 0.8
  electrical conductivity: 0.0264 S/m
323.15 K, x2 = 0
  viscosity: 92 mPa·s
323.15 K, x2 = 0.2
  viscosity: 162 mPa·s
323.15 K, x2 = 0.4
  viscosity: 287 mPa·s
323.15 K, x2 = 0.6
  viscosity: 520 mPa·s
323.15 K, x2 = 0.8
  viscosity: 1015 mPa·s
328 K, x2 = 0
  electrical conductivity: 0.263 S/m
328 K, x2 = 0.4
  electrical conductivity: 0.102 S/m
328 K, x2 = 0.6
  electrical conductivity: 0.0607 S/m
328 K, x2 = 0.8
  electrical conductivity: 0.0366 S/m
328.15 K, x2 = 0
  viscosity: 74 mPa·s
328.15 K, x2 = 0.2
  viscosity: 127 mPa·s
328.15 K, x2 = 0.4
  viscosity: 216 mPa·s
328.15 K, x2 = 0.6
  viscosity: 370 mPa·s
328.15 K, x2 = 0.8
  viscosity: 710 mPa·s
333 K, x2 = 0.2
  electrical conductivity: 0.211 S/m
333 K, x2 = 0.4
  electrical conductivity: 0.13 S/m
333 K, x2 = 0.6
  electrical conductivity: 0.0797 S/m
333 K, x2 = 0.8
  electrical conductivity: 0.0514 S/m
333.15 K, x2 = 0.2
  viscosity: 100 mPa·s
333.15 K, x2 = 0.4
  viscosity: 166 mPa·s
333.15 K, x2 = 0.6
  viscosity: 279 mPa·s
333.15 K, x2 = 0.8
  viscosity: 500 mPa·s
